Test system: LPS-primed THP-1 cells
Assay: Cytokine production in LPS-primed THP-1 cells (ELISA of culture supernatant)
Type: cell-based, human
Procedure: Human monocyte cell line THP-1 (JCRB registration number: JCRB0112) was suspended at 1×10^6 cells/mL in RPMI1640 medium containing 1 μg/mL lipopolysaccharide (LPS) and 10% FBS, and incubated in a CO2 incubator for 3 hours for cell priming. The cell suspension was centrifugated, the cells were resuspended at 1×10^6 cells/mL in RPMI1640 medium containing 10% FBS, and the cell suspension was added to a 24-well plate at 500 μL/well. An OSK-1 solution was prepared at a 2-fold higher concentration than the final concentration in RPMI1640 medium containing 10% FBS and added to the plate at 500 μL/well. After about 16 hours, the culture supernatant was harvested, and the cytokine concentrations in the supernatant were measured by ELISA.
THP-1 cells were suspended at 1×10^6 cells/mL in RPMI1640 medium containing 1 μg/mL LPS and 10% FBS, and incubated in a CO2 incubator for 3 hours for cell priming. The cell suspension was centrifugated, the cells were resuspended at 1×10^6 cells/mL in RPMI1640 medium containing 10% FBS, and the cell suspension was added to a 24-well plate at 500 μL/well. […] After about 16 hours, the culture supernatant was harvested, and the cytokine concentrations in the supernatant were measured by ELISA.

[1] = compared with alum or the CpG nucleotide

With “ELKLIFLHRLKRLRKRLKRK (Ac-ELKLIFLHRLKRLRKRLKRK-NH2) [OSK-1]” the “production of the cytokines (IL-1β, IL-18, TNFα and IL-6 concentrations in the culture supernatant)” value (about 16 hours, ELISA) was “induce the production of the cytokines in the LPS-primed THP-1 cells in an OSK-1 concentration dependent manner”, the “production of IL-1β” value [1] was “more strongly induced” and the “production of TNFα” value [1] was “more strongly induced”.
